According to patent publication US20030157174A1, “Enteric granular preparations of hardly water soluble drugs characterized by containing water-repellent component” (priority 2002, published 2003):
Converted amounts (≈) assume the structure as drawn.

Assay: Solubilities of Compound A to several test solutions
Format: physicochemical
Description: Compound A was used as an insoluble active ingredient in the following references and examples.

Final pH (test solution JP-1 Sol.): 1.15
Final pH (test solution JP-2 Sol.): 6.84
Solubility 3 hours (test solution JP-2 Sol.): 81.08 µg/mL (≈ 184 µM)
Solubility 6 hours (test solution JP-2 Sol.): 81.65 µg/mL (≈ 185 µM)
Final pH (test solution Water): 5.81
Solubility 3 hours (test solution Water): 5.56 µg/mL (≈ 12.6 µM)
Solubility 6 hours (test solution Water): 5.93 µg/mL (≈ 13.4 µM)
Final pH (test solution pH4.0): 4.07
Final pH (test solution pH6.0): 6.08
Solubility 3 hours (test solution pH6.0): 15.19 µg/mL (≈ 34.4 µM)
Solubility 6 hours (test solution pH6.0): 15.57 µg/mL (≈ 35.3 µM)
Final pH (test solution pH7.8): 7.6
Solubility 3 hours (test solution pH7.8): 487.87 µg/mL (≈ 1100 µM)
Solubility 6 hours (test solution pH7.8): 489.05 µg/mL (≈ 1110 µM)
Final pH (test solution pH8.0): 7.76
Solubility 3 hours (test solution pH8.0): 652.56 µg/mL (≈ 1480 µM)
Solubility 6 hours (test solution pH8.0): 675.55 µg/mL (≈ 1530 µM)
Final pH (test solution pH8.5): 8.29
Solubility 3 hours (test solution pH8.5): 6197.64 µg/mL (≈ 14000 µM)
Solubility 6 hours (test solution pH8.5): 6224.39 µg/mL (≈ 14100 µM)
Structure (SMILES): CC1(C)[C@H]2C[C@H](C/C=C\CCCC(=O)O)[C@@H](NC(=O)c3csc4ccc(O)cc34)[C@@H]1C2 [Compound A, (Z)-7-[(1R,2R,3S,5S)-2-(5-hydroxybenzo[b]thiophen-3-ylcarbonylamino)-10-norpinan-3-yl]-5-heptenoic acid]
